Laboratory results published in patent US20170274005A1, “TREATMENT OF RETINITIS PIGMENTOSA USING HYALURONIC ACID-CARBON NANOMATERIAL-PHOTOSENSITIZER COMPLEX” (POSTECH ACADEMY-INDUSTRY FOUNDATION, priority 2016, published 2017).

Legend:
[1] = Analysis of prevention of active oxygen using DPPH; settings: aqueous solution, 0 to 100 μg/mL based on the amount of Ce6, FIG. 2
[2] = tested on: retinal pigment epithelium cell; assay: MTT assay of retinal pigment epithelium cell treated using sodium iodate; assay type: cell-based; settings: pre-treatment, then 5 mM sodium iodate, 24 hours, FIG. 5

**Q.** Which “active oxygen suppression ability” value [1] does the source give for chlorine e6 [Ce6] here?
**A.** The value was 60%.

**Q.** And the “viability of the pre-treated cell versus cell treated using sodium iodate only” value [2]?
**A.** The value was “lower”.
